Consider five molecules from US20100273868A1, “R-Zileuton for Use in Conditions Associated with Increased 5-Lipoxygenase and/or Leukotriene Activity (EG Asthma)” (Cornerstone Therapeutics Inc., priority 2007, published 2010).

Bounds are passed on as bounds.

For data set [1], the system named is infiltration of inflammatory cells to the airways. Kind of data set: Mouse model of asthma, ovalbumin challenge, BAL 8 h after final challenge (Example 5). The class given is in vivo, BALB/c mice. To be noted: for inhibition of eosinophils in BAL fluid / inhibition of neutrophil infiltration in BAL fluid / inhibition of the increase in total cellularity of BAL fluid: 4 mg/kg; for efficacy compared with racemic zileuton or S(−) zileuton: 2 or 4 mg/kg oral once a day. The procedure: Male BALB/c mice were obtained from Taconic Labs (Taconic, N.Y.) and maintained on an OVA-free (ovalbumin-free) diet. After equilibration of at least 5 days, animals were sensitized to OVA and then challenged by the following procedure. On days 1 and 14, sensitization was performed by intraperitoneal (ip) injections of 10 μg OVA emulsified in 2 mg Al(OH)3 (aluminum hydroxide (Aldrox)) in a volume of […]. On days 29, 30 and 31, allergen challenge was performed via intranasal instillation of 20 μL (10 μL/nare) of OVA (1 mg/mL) under light isoflurane anesthesia.
The background control group received no sensitization and no challenge. The sham control group underwent the OVA sensitization procedure, but was challenged with PBS. The vehicle control group was used to determine the maximal response level achievable.
Animals were given Zileuton (at 2 or 4 mg/kg, by mouth (po), once daily (qd)) or (orally) 30 minutes prior to each ovalbumin challenge. Eight hours after the final ovalbumin challenge, animals were sacrificed and bronchoalveolar lavage (BAL) was performed. A tracheal tube was inserted into the trachea and the lungs were lavaged 2 times with pyrogen-free, sterile, PBS containing 0.01% EDTA and 0.05% BSA (Bovine serum albumin). Lavage fluid, maintained at room temperature, was slowly injected into the lungs; lungs were manually massaged to distribute fluid for 30 seconds, bronchoalveolar lavage fluid (BALF) was slowly withdrawn and salvaged to individually-labeled, sterile, polypropylene tubes. The procedure was repeated 2 times/animal and the lavage fluids were pooled. The magnitude of the infiltration of inflammatory cells to the airways was determined by flow cytometry.

A short description of data set [2]: Plasma concentration-time profile (AUC) after oral dosing to dogs. Format: in vivo, beagle dogs. To be noted: for AUC: beagle, dog, plasma, gelcaps. The method, then:
The plasma concentration-time profiles for racemic zileuton and (R)-zileuton were evaluated in beagle dogs dosed orally with either 10 mg/kg racemic zileuton or 5 mg/kg (R)-zileuton in gelcaps. Following oral dosing blood samples were collected from the test animals into sodium-EDTA anticoagulant tubes at selected time points up to 48 hours post-dose, processed into plasma and analysed by an LC-MS/MS method for zileuton concentration. The LC-MS/MS method utilized a 0.1% trifluoroacetic in water and methanol gradient HPLC system (initial 45:55 to 10:90% over 4 minutes with a Zorbax SB-C18 4.6×30 mm column at a flow rate of 1.5 mL/min). The retention time of zileuton was 2.0 minutes. A stable labeled version of zileuton was used to internally standardize the analysis. Mass spectrometer analysis by electrospray ionization of the HPLC eluent was performed in SRM mode (ESI 3.5 kV; tube lens voltage 71.0; capillary offset 40.3; L11-24.3; capillary temperature 350° C.; dwell 100 msec; collision energy 15 eV). Plasma concentrations of zileuton in the test samples were estimated by interpolation of sample peak area/height data from a standard concentration-peak area/height plot. The area under the plasma concentration-time (AUC) was calculated by non-compartmental pharmacokinetic analysis (WinNonlin, Pharsight, Mountain View, Calif.) using the trapezoidal rule.

The test system of data set [3] is LTB4 production in canine whole blood. The data set can be described thus: Ex vivo inhibition of A23187-stimulated LTB4 production in canine whole blood after oral dosing. To be noted: Canis lupus familiaris, dogs; for inhibition at 5 mg/kg: 5 mg/kg oral; for inhibition at 10 mg/kg: 10 mg/kg oral. The procedure: To determine the pharmacodynamics of racemic and (R)-zileuton, ex vivo, in fresh canine whole blood, a 0.5 ml aliquot was removed from each pharmacokinetic sample of the study. Each 0.5 ml aliquot of blood was placed into an individually-labeled, 1.5 ml polypropylene tube. Five (5) μl of a 5 mM calcium ionophore A23187 solution (in DMSO) was added to each sample and mixed for 10 seconds on a vortex. Final concentration of A23187 in whole blood was 50 μM (final DMSO concentration was 1%). After mixing, each sample was placed into a 37° C. circulating water bath and allowed to incubate for 30 minutes. […] After incubation, each sample was removed from the water bath and immediately placed onto wet ice for 2 minutes. The samples were removed from the ice after 2 minutes and immediately centrifuged in an Eppendorf Microfuge (VWR Scientific, USA) at 14,000 rpm for 2 minutes at ambient room temperature. After centrifugation, the supernatant (plasma) was collected, diluted into EIA buffer (1M phosphate buffer, pH 7.4) then stored at −80° C. until assay. The level of LTB4 was analyzed by enzyme immunoassay (Cayman Chemical Co., Ann Arbor, Mich.).

Data set [4] deals with LTB4 production in human whole blood. Kind of data set: Human whole blood assay of LTB4 inhibition. Format: cell-based. To be noted: for IC50: A23187 50 μM. The method, then:
The potency of racemic and (R)-zileuton was assessed in fresh human whole blood essentially by the methods of Carter et al., J. Pharm. Exp. Ther. 1991: 256:929. Briefly, 0.5.ml of heparinized (20 USP U/ml) human blood from each donor was incubated with vehicle (DMSO), or various concentrations of racemic zileuton, (R)-zileuton or (S)-zileuton (prepared in DMSO) for fifteen minutes at 37° C. Eicosanoid biosynthesis was initiated by the addition of calcium ionophore A23187 in DMSO to a final concentration of 50 μM (final DMSO concentration of 1%). Samples were incubated for an additional 30 minutes at 37° C. in the presence of A23187. The reaction was terminated by cooling in an ice bath for 2 minutes followed by centrifugation. The plasma was then salvaged to an EIA buffer (1M phosphate buffer, pH 7.4) then stored at −80° C. until assay. The level of LTB4 was analyzed by enzyme immunoassay.

Data set [5] has as its system cellular infiltration of airways. The data set can be described thus: Murine model of allergic lung inflammation, ovalbumin challenge, BAL 24 h after final challenge (Example 4). The class given is in vivo, BALB/c mice. To be noted: oral. The method, then:
Male, BALB/c mice were sensitized intraperitoneally (i.p.) with ovalbumin (10 μg) on days 1 and 14. To provoke an allergic lung inflammatory response, the mice received three intransal (i.n.) challenges with ovalbumin (100 μg) (or saline for sham) on days 29, 30 and 31. After sensitization period, animals were treated orally 30 minutes prior to ovalbumin challenge on days 29, 30 and 31 according to the following regimes: racemic Zileuton (10 mg/kg, four times daily (qid)), Montelukast (0.17 mg/kg, once daily (qd)), Dexamethasone (4 mg/kg, once daily (qd)). Twenty-four hours following the final challenge (n=16 per group, pool of two separate studies), animals were sacrificed and bronchoalveolar lavage (BAL) was performed. Infiltration of airways by inflammatory cells was quantified by cytospin, microscopy and/or flow cytometry. The dose levels and frequencies of zileuton and montelukast were chosen to approximate the human clinical use. Zileuton, Montelukast and Dexamethasone were compared to their respective “qid” and “qd” controls.

Consider `C[C@H](c1cc2ccccc2s1)N(O)C(N)=O` [(R)-zileuton], for which the “inhibition of the total cell infiltration” value in data set [1] (2 mg/kg, po, qd, versus vehicle control) is reported as 66%. For the same molecule, in data set [1] (po, qd, versus vehicle control), the “inhibition of eosinophils in BAL fluid” value was 75%, the “inhibition of neutrophil infiltration in BAL fluid” value came out at 65% and the “inhibition of the increase in total cellularity of BAL fluid” value (shortened to “inhibition of the increase”) worked out at 85%. Also, the “efficacy compared with racemic zileuton or S(−) zileuton” value in data set [1] is listed as “significantly greater efficacy than racemic zileuton”. Moreover, the “efficacy compared with racemic zileuton or S(−) zileuton” value in data set [1] (listed as R(+) zileuton) is recorded as “greater efficacy”. Also, in data set [2] (FIG. 1), the “share of the racemic zileuton AUC” value is 58%. Also, the area under the curve (AUC) (commonly the area under the concentration-time curve, a measure of exposure) in data set [2] (5 mg/kg po) stood at 52000 ng·h/mL. The inhibition (usually how much of the control response was suppressed) at 5 mg/kg in data set [3] (36 hours after administration) was roughly 74%. This molecule also yielded an inhibition at 5 mg/kg in data set [3] (time points between 60 minutes and 24 hours after administration) greater than 91%. Moreover, in data set [4], the “S(−) zileuton IC50/R(+) zileuton IC50 ratio” value is 11.9 and inhibition was half-maximal at 399 nM (IC50).

In the case of `CC(c1cc2ccccc2s1)N(O)C(N)=O` (racemic) [racemic zileuton, (±)-1-(1-Benzo[b]thien-2-ylethyl)-1-hydroxyurea], in data set [1] (po, qd, versus vehicle control), the “inhibition of eosinophils in BAL fluid” value came out at 67%, the “inhibition of neutrophil infiltration in BAL fluid” value turned out to be 54% and the “inhibition of the increase” value was determined as 66%. This molecule showed an exposure (AUC) in data set [2] (10 mg/kg po) of 87000 ng·h/mL. For the same molecule, in data set [5] (10 mg/kg, qid), the “% Inhibition Eosinophils” value stood at 99.2 ± 0.02%, the “% Inhibition Neutrophils” value stood at 87.9 ± 2.3% and the “% Inhibition Total cells” value amounted to 62.2 ± 1.7%. Also, the inhibition at 10 mg/kg in data set [3] (36 hours after administration) is roughly 84%. For the same molecule, the inhibition at 10 mg/kg in data set [3] (time points between 30 minutes and 24 hours after administration) worked out at 100%. Besides, the half-inhibitory concentration (IC50) (usually the concentration that gives 50% inhibition) in data set [4] came to 745 nM.

On to `CC(C)(O)c1ccccc1CC[C@@H](SCC1(CC(=O)O)CC1)c1cccc(/C=C/c2ccc3ccc(Cl)cc3n2)c1` [Montelukast], for which, in data set [5] (0.17 mg/kg, qd), the “% Inhibition Eosinophils” value worked out at 99.2 ± 0.02%, the “% Inhibition Neutrophils” value is 23.3 ± 6.6% and the “% Inhibition Total cells” value worked out at 53.3 ± 6.5%.

As for `C[C@@H]1C[C@H]2[C@@H]3CCC4=CC(=O)C=C[C@]4(C)[C@@]3(F)[C@@H](O)C[C@]2(C)[C@@]1(O)C(=O)CO` [Dexamethasone], in data set [5] (4 mg/kg, qd), the “% Inhibition Eosinophils” value is given as 99.2 ± 0.02%, the “% Inhibition Neutrophils” value is on record as 90.5 ± 1.1% and the “% Inhibition Total cells” value is listed as 62.5 ± 1.5%.

As for `C[C@@H](c1cc2ccccc2s1)N(O)C(N)=O` [(S)-zileuton], in data set [1] (po, qd, versus vehicle control), the “inhibition of eosinophils in BAL fluid” value amounted to 51%, the “inhibition of neutrophil infiltration in BAL fluid” value is recorded as 35% and the “inhibition of the increase” value is “not significantly effective”. For the same molecule, the IC50 in data set [4] amounted to 4770 nM.
